Like-named read-outs stand apart in the source and are kept apart here.
Key:
[1] = Partition coefficient log Po/w by HPLC (OECD 117); type: physicochemical; settings: HPLC method, OECD 117, methanol:water 3:1
Procedure: The analyses were performed with the use of an isocratic flow in methanol: water (3:1) at 1.0 mL min^−1. We injected 20.0 μL and analyses were performed at 254 nm. We used as reference compounds thiourea, phenol, acetophenone, benzoic acid, benzene, toluene, biphenyl, fluoranthene and triphenylamine in order to construct the curve log K × log Po/w. The lipophilicity of alkyl dihydroxybenzoates was determined from their retention times and interpolation in linearity curve log K × log Po/w. We performed the analyses in duplicate.

[2] = system: X. citri subsp. citri strain 306 (IBSBF 1594); test: MIC by Resazurin Microtiter Assay (REMA); type: cell-based, Xanthomonas citri subsp. citri; settings: Xanthomonas citri, 12 h
Procedure: The antibacterial potential of carboxylic acids and their esters were compared to copper oxychloride (a commercial active often used to combat citrus canker). Minimal inhibitory concentration (MIC) values were determined by REMA assay, which measures cellular respiratory activity.
(§1) The antibacterial activity of alkyl dihydroxybenzoates and the determination of minimum inhibition concentration (MIC) were performed by the fluorimetric method Resazurin Microtiter Assay (REMA) with some modifications. An overnight culture of X. citri subsp. citri strain 306 (IBSBF 1594) was grown in 20 mL in Nitrogen Yeast Glycerol (NYG) at 29 °C in constant agitation of 180–200 rpm. After 12 h, the Xcc inoculum was dispersed in NYG medium and distributed into a 96 well microtiter plate to a final volume of 100 μL per well (10^5 CFU per well). Stock solutions of tested compounds at 10 mg mL^−1 were prepared in dimethyl sulfoxide (DMSO) and dispersed in NYG medium to obtain 1% DMSO and the final compound concentration range of 0.78–100 μg mL^−1. The negative control was constituted of 100 μL culture medium. In addition, the copper oxychloride was tested as a comparison to alkyl dihydroxybenzoates and kanamycin (20 μg mL^−1), which was used as a control antibiotic. The plate was subsequently incubated at 29 °C for 12 h, and 15 μg mL^−1 freshly prepared resazurin solution in water was added to each well, and the plate was incubated for 2 h. The fluorescence was determined on a Synergy H1 (BioTek, Winooski, VT, USA) microplate reader using the excitation and emission filters at wavelengths of 530 and 590 nm respectively. After the REMA assay, the minimum bactericidal concentration (CBM) assay was performed using a 96-pin stainless steel plate replicator, accurately transferring the wells from the REMA plate to Petri dishes Petri dishes were incubated in oven B.O.D. at 29 °C for 24 to 48 h. The experiments were performed in triplicate.

[3] = system: X. citri subsp. citri strain 306 (IBSBF 1594); test: MBC, REMA plates replicated to Petri dishes; type: cell-based, Xanthomonas citri subsp. citri; settings: Xanthomonas citri
Procedure: The minimal bactericidal concentration (MBC) was determined by observing the bacterial growth in Petri dishes transferred from the REMA plates.
as §1

[4] = REMA, NYG medium, 29 °C, read-out: MIC
[5] = REMA, NYG medium, 29 °C, read-out: MIC in μM
[6] = Petri dishes from REMA plates, 29 °C, 24 to 48 h, read-out: MBC

| Structure (SMILES) | chromatographic logP [1] | MIC [2, 4] [µg/mL] | MIC [2, 5] [µM] | MBC [3, 6] [µg/mL] | MIC ([2]; REMA, NYG medium, 29 °C) [µg/mL] | MIC ([2]; read-out: MIC in μM, REMA, NYG medium, 29 °C, 12 h) [µM] | MBC [3] [µg/mL] |
| --- | --- | --- | --- | --- | --- | --- | --- |
| O=C(O)c1ccc(O)cc1O [2,4 DHB acid, 2,4 dihydroxybenzoic acid, reference compound] | 2.6 | > 100 | > 648 | > 100 |  |  |  |
| O=C(O)c1cc(O)ccc1O [2,5 DHB acid, 2,5 dihydroxybenzoic acid, reference compound] | 2.8 | > 100 | > 648 | > 100 |  |  |  |
| O=C(O)c1ccc(O)c(O)c1 [3,4 DHB acid, 3,4 dihydroxybenzoic acid, reference compound] | 0.8 | > 100 | > 648 | > 100 |  |  |  |
| CCOC(=O)c1ccc(O)cc1O [Compound 1] | 2.8 | > 100 | > 548 | > 100 |  |  |  |
| CCCCOC(=O)c1ccc(O)cc1O [Compound 2] | 3.9 |  | 189 | 50 |  |  |  |
| CCCCCCOC(=O)c1ccc(O)cc1O [Compound 3] | 5 |  | 84 | 50 |  |  |  |
| CCCCCCCCOC(=O)c1ccc(O)cc1O [Compound 5] | 6.1 | > 100 | > 375 | > 100 |  |  |  |
| CCCCCCCCCOC(=O)c1ccc(O)cc1O [Compound 6] | 6.2 | > 100 | > 356 | > 100 |  |  |  |
| CCCCCCCCCCOC(=O)c1ccc(O)cc1O [Compound 7] | 6.9 | > 100 | > 340 | > 100 |  |  |  |
| CCCCCCCCCCCCOC(=O)c1ccc(O)cc1O [Compound 8, dodecyl 2,4 dihydroxybenzoate] | 7 | > 100 | > 310 | > 100 |  |  |  |
| CC(C)OC(=O)c1ccc(O)cc1O [Compound 9] | 2.6 | > 100 | > 510 | > 100 |  |  |  |
| O=C(OC1CCCC1)c1ccc(O)cc1O [Compound 10] | 2.2 | > 100 | > 450 | > 100 |  |  |  |
| O=C(OC1CCCCC1)c1ccc(O)cc1O [Compound 11] | 4 |  | 171 | 100 |  |  |  |
| CCOC(=O)c1cc(O)ccc1O [Compound 13] | 2.4 | > 100 | > 549 | > 100 |  |  |  |
| CCCCOC(=O)c1cc(O)ccc1O [Compound 14] | 3.4 | > 100 | > 475 | > 100 |  |  |  |
| CCCCCCOC(=O)c1cc(O)ccc1O [Compound 15] | 4.5 |  | 140 | 50 |  |  |  |
| CCCCCCCCOC(=O)c1cc(O)ccc1O [Compound 17] | 5.2 | > 100 | > 375 | > 100 |  |  |  |
| CCCCCCCCCOC(=O)c1cc(O)ccc1O [Compound 18] | 5.7 | > 100 | > 357 | > 100 |  |  |  |

| Structure (SMILES) | chromatographic logP [1] | MIC [2, 4] [µg/mL] | MIC [2, 5] [µM] | MBC [3, 6] [µg/mL] | MIC ([2]; REMA, NYG medium, 29 °C) [µg/mL] | MIC ([2]; read-out: MIC in μM, REMA, NYG medium, 29 °C, 12 h) [µM] | MBC [3] [µg/mL] |
| --- | --- | --- | --- | --- | --- | --- | --- |
| CCCCCCCCCCOC(=O)c1cc(O)ccc1O [Compound 19] | 6.3 | > 100 | > 340 | > 100 |  |  |  |
| CCCCCCCCCCCCOC(=O)c1cc(O)ccc1O [Compound 20] | 6.8 | > 100 | > 310 | > 100 |  |  |  |
| CC(C)OC(=O)c1cc(O)ccc1O [Compound 21] | 2.2 | > 100 | > 510 | > 100 |  |  |  |
| O=C(OC1CCCC1)c1cc(O)ccc1O [Compound 22] | 3 | 83.5 | 375 | 100 |  |  |  |
| O=C(OC1CCCCC1)c1cc(O)ccc1O [Compound 23] | 3.5 | 90.4 | 382 | 100 |  |  |  |
| O=C(OCCc1ccccc1)c1cc(O)ccc1O [Compound 24] | 3.1 | 59.7 | 231 | 100 |  |  |  |
| CCOC(=O)c1ccc(O)c(O)c1 [Compound 25] | 1.7 | > 100 | > 549 | > 100 |  |  |  |
| CCCCOC(=O)c1ccc(O)c(O)c1 [Compound 26] | 2.6 | > 100 | > 475 | > 100 |  |  |  |
| CCCCCCOC(=O)c1ccc(O)c(O)c1 [Compound 27] | 3.7 | 44.4 | 186 | 50 |  |  |  |
| CCCCCCCCOC(=O)c1ccc(O)c(O)c1 [Compound 29] | 4.9 | 31.2 | 117 | 50 |  |  |  |
| CCCCCCCCCOC(=O)c1ccc(O)c(O)c1 [Compound 30] | 5.5 | 26.7 | 95 | 50 |  |  |  |
| CCCCCCCCCCOC(=O)c1ccc(O)c(O)c1 [Compound 31] |  |  |  |  | > 100 | > 340 | 100 |
| CCCCCCCCCCCCOC(=O)c1ccc(O)c(O)c1 [Compound 32] | 6.9 | > 100 | > 310 | > 100 |  |  |  |
| CC(C)OC(=O)c1ccc(O)c(O)c1 [Compound 33] | 1.4 | > 100 | > 510 | > 100 |  |  |  |
| O=C(OC1CCCC1)c1ccc(O)c(O)c1 [Compound 34] | 2.2 | > 100 | > 450 | > 100 |  |  |  |
| O=C(OC1CCCCC1)c1ccc(O)c(O)c1 [Compound 35] | 2.7 | > 100 | > 423 | > 100 |  |  |  |
| O=C(OCCc1ccccc1)c1ccc(O)c(O)c1 [Compound 36] | 2.4 | < 100 | 345 | 100 |  |  |  |
